The values below are quoted from earlier work in PubChem BioAssay AID1259409 (Chemical Carcinogenesis Research Information System (CCRIS), 2018).

This data set relates to rodent chemically induced tumor inhibition, incidence and multiplicity. The data set can be described thus: CCRIS tumor inhibitor studies.

With `O=c1[nH]c(=O)n([C@H]2C[C@H](O)[C@@H](CO)O2)cc1Br`, the “tumour outcome (control, treated, inhibition, significance)” value is reported as 10/40 (25%), 11/35 (31%), -24%, not calculated (Carcinogen: DIETHYLNITROSAMINE, 55-18-5, Dose [Inhibitor]: 0, 100 MG/KG INJECTED 4, 24, AND 48 HR AFTER EACH CARCINOGEN EXPOSURE (STUDY DURATION: 6 MO), Route [Inhibitor]: INTRAPERITONEAL, Species: RAT, Strain/Sex: BD6/MALE, Target Tissue: Type of Lesion: ESOPHAGUS: TUMOR, Dose [Carcinogen]: 80 MG/KG 1 WK FOR 7 WK) and 29/40 (73%), 20/35 (57%), 22%, not calculated (Carcinogen: DIETHYLNITROSAMINE, 55-18-5, Dose [Inhibitor]: 0, 100 MG/KG INJECTED 4, 24, AND 48 HR AFTER EACH CARCINOGEN EXPOSURE (STUDY DURATION: 6 MO), Route [Inhibitor]: INTRAPERITONEAL, Species: RAT, Strain/Sex: BD6/MALE, Target Tissue: Type of Lesion: LIVER: TUMOR, Dose [Carcinogen]: 80 MG/KG 1/WK FOR 7 WK).
As for `O=C(O)CC(O)(CC(=O)O)C(=O)O`, the “tumour outcome (control, treated, inhibition, significance)” value is reported as 3/15 (20%), 3/15 (20%), 0%, not significant (Carcinogen: N-BUTYL-N-(4-HYDROXYBUTYL)NITROSAMINE, 3817-11-6, Dose [Inhibitor]: 4.85% IN BASAL DIET ADMINISTERED SIMULTANEOUSLY WITH CARCINOGEN DOSE FOR 20 WK (STUDY DURATION: 20 WK), Route [Inhibitor]: ORAL, Species: RAT, Strain/Sex: F344/MALE, Target Tissue: Type of Lesion: BLADDER: CARCINOMA, Dose [Carcinogen]: 0.025% IN DRINKING WATER FOR 20 WK, Promoter: NONE USED); 4/15 (27%), 2/15 (13%), 50%, not significant (Carcinogen: N-BUTYL-N-(4-HYDROXYBUTYL)NITROSAMINE, 3817-11-6, Dose [Inhibitor]: 4.85% IN BASAL DIET ADMINISTERED SIMULTANEOUSLY WITH CARCINOGEN DOSE FOR 20 WK (STUDY DURATION: 20 WK), Route [Inhibitor]: ORAL, Species: RAT, Strain/Sex: F344/MALE, Target Tissue: Type of Lesion: BLADDER: PAPILLOMA, Dose [Carcinogen]: 0.025% IN DRINKING WATER FOR 20 WK (FOR A TOTAL INTAKE OF 4.1 MMOL/RAT), Promoter: NONE USED); 3/15 (20%), 12/15 (80%), -300%, p<0.01 (Carcinogen: N-BUTYL-N-(4-HYDROXYBUTYL)NITROSAMINE, 3817-11-6, Dose [Inhibitor]: 6.50% IN BASAL DIET ADMINISTERED SIMULTANEOUSLY WITH CARCINOGEN DOSE FOR 20 WK (STUDY DURATION: 20 WK), Route [Inhibitor]: ORAL, Species: RAT, Strain/Sex: F344/MALE, Target Tissue: Type of Lesion: BLADDER: CARCINOMA, Dose [Carcinogen]: 0.025% IN DRINKING WATER FOR 20 WK, Promoter: NONE USED); 4/15 (27%), 3/15 (20%), 25%, not significant (Carcinogen: N-BUTYL-N-(4-HYDROXYBUTYL)NITROSAMINE, 3817-11-6, Dose [Inhibitor]: 6.50% IN BASAL DIET ADMINISTERED SIMULTANEOUSLY WITH CARCINOGEN DOSE FOR 20 WK (STUDY DURATION: 20 WK), Route [Inhibitor]: ORAL, Species: RAT, Strain/Sex: F344/MALE, Target Tissue: Type of Lesion: BLADDER: PAPILLOMA, Dose [Carcinogen]: 0.025% IN DRINKING WATER FOR 20 WK (FOR A TOTAL INTAKE OF 6.8 MMOL/RAT), Promoter: NONE USED); 13/15 (87%), 14/15 (93%), -8%, not significant (Carcinogen: N-ETHYL-N-(4-HYDROXYBUTYL)NITROSAMINE, 54897-62-0, Dose [Inhibitor]: 4.85% IN BASAL DIET ADMINISTERED SIMULTANEOUSLY WITH CARCINOGEN DOSE FOR 20 WK (STUDY DURATION: 20 WK), Route [Inhibitor]: ORAL, Species: RAT, Strain/Sex: F344/MALE, Target Tissue: Type of Lesion: BLADDER: CARCINOMA, Dose [Carcinogen]: 0.021% IN DRINKING WATER FOR 20 WK, Promoter: NONE USED); 14/15 (93%), 13/15 (87%), 7%, not significant (Carcinogen: N-ETHYL-N-(4-HYDROXYBUTYL)NITROSAMINE, 54897-62-0, Dose [Inhibitor]: 4.85% IN BASAL DIET ADMINISTERED SIMULTANEOUSLY WITH CARCINOGEN DOSE FOR 20 WK (STUDY DURATION: 20 WK), Route [Inhibitor]: ORAL, Species: RAT, Strain/Sex: F344/MALE, Target Tissue: Type of Lesion: BLADDER: PAPILLOMA, Dose [Carcinogen]: 0.021% IN DRINKING WATER FOR 20 WK, Promoter: NONE USED). Also, the “tumour outcome (control, treated, inhibition, significance)” value (Carcinogen: N-ETHYL-N-(4-HYDROXYBUTYL)NITROSAMINE, 54897-62-0, Dose [Inhibitor]: 6.50% IN BASAL DIET ADMINISTERED SIMULTANEOUSLY WITH CARCINOGEN DOSE FOR 20 WK (STUDY DURATION: 20 WK), Route [Inhibitor]: ORAL, Species: RAT, Strain/Sex: F344/MALE, Target Tissue: Type of Lesion: BLADDER: CARCINOMA, Dose [Carcinogen]: 0.021% IN DRINKING WATER FOR 20 WK, Promoter: NONE USED) is on record as 13/15 (87%), 15/15 (100%), -15%, not significant; the “tumour outcome (control, treated, inhibition, significance)” value (Carcinogen: N-ETHYL-N-(4-HYDROXYBUTYL)NITROSAMINE, 54897-62-0, Dose [Inhibitor]: 6.50% IN BASAL DIET ADMINISTERED SIMULTANEOUSLY WITH CARCINOGEN DOSE FOR 20 WK (STUDY DURATION: 20 WK), Route [Inhibitor]: ORAL, Species: RAT, Strain/Sex: F344/MALE, Target Tissue: Type of Lesion: BLADDER: PAPILLOMA, Dose [Carcinogen]: 0.021% IN DRINKING WATER FOR 20 WK, Promoter: NONE USED) is reported as 14/15 (93%), 13/15 (87%), 7%, not significant; the “tumour outcome (control, treated, inhibition, significance)” value (Carcinogen: N-ETHYL-N-HYDROXYETHYLNITROSAMINE, 13147-25-6, Dose [Inhibitor]: 0, 5% IN DIET OF UNILATERALLY NEPHRECTOMIZED RATS BEGINNING POST CARCINOGEN TREATMENT AND CONTINUING FOR 18 WK (STUDY DU, Route [Inhibitor]: ORAL, Species: RAT, Strain/Sex: WISTAR/MALE, Target Tissue: Type of Lesion: KIDNEY: RENAL CELL TUMOR, Dose [Carcinogen]: 1000 PPM IN DIET FOR 2 WK, Promoter: POTASSIUM DIBASIC PHOSPHATE, 7758-11-4) is given as 15/15 (100%), 4/14 (29%), 71%, p<0.05.
As for `O=c1ccc2cc(O[C@@H]3O[C@H](CO)[C@@H](O)[C@H](O)[C@H]3O)c(O)cc2o1`, the outcome was 5 (31%) vs 10 (62.5% in positive controls) (p <0.05) (Carcinogen: 1,2-Dimethylhydrazine dihydrochloride (306-37-6), Dose [Inhibitor]: 0.05% in tap water beginning 7 d before first carcinogen administration to end of last carcinogen administration, animal, Route [Inhibitor]: Oral, Species: Rat, Strain/Sex: Fischer 344/male, Target Tissue: Type of Lesion: Colon: tumors, Dose [Carcinogen]: 20 mg/kg once a wk for 4 wk, Promoter: None) and 9 (56.3%) vs 10 (62.5%) in positive controls; ns (Carcinogen: 1,2-Dimethylhydrazine dihydrochloride (306-37-6), Dose [Inhibitor]: 0.05% in tap water beginning after last carcinogen administration to end of 16 wk study, Route [Inhibitor]: Oral, Species: Rat, Strain/Sex: Fischer 344/male, Target Tissue: Type of Lesion: Colon: tumors, Dose [Carcinogen]: 20 mg/kg once a wk for 4 wk, Promoter: None). Moreover, the “tumour outcome (control, treated, inhibition, significance)” value runs as follows: (Carcinogen: BENZO[A]PYRENE, 50-32-8, Dose [Inhibitor]: 25 MG IN 0.1 ML DMSO 3/WK ADMINISTERED SIMULTANEOUSLY WITH CARCINOGEN FOR DURATION OF STUDY (STUDY DURATION: 368 D), Route [Inhibitor]: DERMAL, Species: MOUSE, Strain/Sex: ICR/FEMALE, Target Tissue: Type of Lesion: SKIN: PAPILLOMA, Dose [Carcinogen]: 5 UG IN 0.1 ML DMSO 3/WK FOR DURATION OF STUDY, Promoter: NONE USED) 13/50 (26%), 0/50 (0%), 100%, not calculated; (Carcinogen: BENZO[A]PYRENE, 50-32-8, Dose [Inhibitor]: 25 MG IN 0.1 ML DMSO 3/WK ADMINISTERED SIMULTANEOUSLY WITH CARCINOGEN FOR DURATION OF STUDY (STUDY DURATION: 368 D), Route [Inhibitor]: DERMAL, Species: MOUSE, Strain/Sex: ICR/FEMALE, Target Tissue: Type of Lesion: SKIN: SQUAMOUS CARCINOMA, Dose [Carcinogen]: 5 UG IN 0.1 ML DMSO THAT ALSO CONTAINED AGENT, 3/WK, FOR DURATION OF STUDY, Promoter: NONE USED) 6/50 (12%), 0/50 (0%), 100%, not calculated.
On to `O=CC[C@@H](O)[C@H](O)[C@H](O)CO`, for which, where the note is “Carcinogen: 1-METHYL-1-NITROSOUREA [684-93-5], Dose [Inhibitor]: 0, 0.02, 0.03% IN DIET 6 D AFTER CARCINOGEN FOR 5 WKS, Route [Inhibitor]: DIET, Species: RAT, Strain/Sex: SPRAGUE-DAWLEY/FEMALE (30,30)/(30,30)/(30,30), Target Tissue: Type of Lesion: MAMMARY GLAND: ADENOCARCINOMA, Dose [Carcinogen]: 50 MG/KG BW AT 21 D OF AGE (STUDY DURATION: 6-7 WKS)”, the outcome is 25/30 (83.3%); 15/30 (50%), 40%, p<0.001; 15/30 (50%), 40%, p<0.001.
